“Also recorded” adds a separate entry of the source.
Tests used:
[1] = Questionnaire about side effects after chair ride
motion sickness = experiment: Off-vertical rotation chair motion sickness test; assay type: in vivo, human; conditions: for Mean Time (chair time): ride 3 h after drug, placebo 7.2; for Mean Time (chair time) / Mean Motion Sickness Severity Score: n = 18; for Mean Motion Sickness Severity Score: end of chair ride, placebo 18.2
Text: Motion sickness was simulated by rotation in a tilted chair, also known as off-vertical rotation (Knox, et al. (1994) Laryngoscope 104(8 Pt 1):935-9; Woodard, et al. (1993) Aviat. Space Environ. Med. 64(5):363-6; Mowrey and Clayson (1982) Lancet 1(8273):655-7; Graybiel and Miller (1970) Aero. Med. 41(4):407-10). Off-vertical rotation produces motion sickness symptoms in more than 90% of subjects tested and has a high test-retest reliability. No provocative head motions are required which minimizes subject fatigue and training. For each run, the chair was tilted to 15 degrees off vertical, and accelerated at 5 degrees/sec^2 to 17.5 revolutions per minute. […] The subject was restrained with a seat belt and shoulder harness. The subject's head was also secured to the headrest with a strap to prevent head movements. Opaque goggles were placed over the subject's eyes.
The degree of motion sickness was assessed in three different ways. For the first method, the subjects were instructed how to use a well-known ratio scaling method (Bock and Oman (1982) Aviat. Space Environ. Med. 53(8):773-7) and were given a familiarization run in the chair to experience the motion sickness symptoms. The subjects were instructed to rate the peak overall discomfort they experienced in the familiarization ride as a “10” and to remember this level. They were instructed to rate all other levels of discomfort relative to this level. For example, discomfort which was half as severe would be rated as a “5”. This method is similar other well-known methods (see, e.g., Stott, et al. (1989) Br. J. Clin. Pharma. 27(2):147-57).
The second method was symptom recording. Prior to the familiarization run the subjects were instructed about the different symptoms that might occur (drowsiness, epigastric awareness, and the like). The subjects were asked about these symptoms each minute during the rotation and logged on a scoring sheet (Miller and Graybiel (1970) Aero. Med. 41(4):407-10), which was a variant of the Pensacola Diagnostic Rating Scale. The symptoms were assigned points and from these points, five levels of severity were determined (frank sickness, severe malaise, moderate malaise A, moderate malaise B, slight malaise).
The third method used to assess motion sickness was to record the total number of minutes the subject rides in the chair before stopping (Woodard, et al. (1993) supra; Mowrey and Clayson (1982) supra).
The studies employed a double-blind, placebo controlled, crossover design. […] The placebo was a single lactose capsule. […] The medications were labeled only with the subject's name, identification number and sequence of administration (i.e., Run 1, Run 2, Run 3). […] Both the research team and subjects were unaware of the order of administration.
Prior to the ride, subjects received a briefing on the symptoms they might experience, how to report those symptoms and instructions on when to stop the test. After the familiarization ride the subjects were instructed to remember their peak overall discomfort as a “10” and to rate all future symptoms relative to that baseline.
The subjects rode in the chair once for each treatment (low dose, high dose, and placebo) with at least one week between rides. A one week interval between rides is sufficient to prevent habituation to the rotating stimulus (Kohl (1987) Aviat. Space Environ. Med. 58(2):125-31; Stott, et al (1989) supra).
Test medications were taken two hours after finishing breakfast. […] On the study day, the subjects came to the lab, performed the cognitive testing battery and were observed taking the test medication. The time of drug ingestion was documented and the subjects returned three hours after taking the medication to complete the cognitive testing battery and ride in the chair. Prior to entering the chair, subjects received a standardized test briefing. Every minute during the testing, subjects were quizzed for motion sickness symptoms and asked to rate their own symptoms on a ratio scale. […]

[2] = Cognitive assessment battery before and after drug and chair ride; assay type: in vivo, human; conditions: for Mean Reaction Time: n = 15
Text: Test medications were taken two hours after finishing breakfast. […] On the study day, the subjects came to the lab, performed the cognitive testing battery and were observed taking the test medication. The time of drug ingestion was documented and the subjects returned three hours after taking the medication to complete the cognitive testing battery and ride in the chair. Prior to entering the chair, subjects received a standardized test briefing. Every minute during the testing, subjects were quizzed for motion sickness symptoms and asked to rate their own symptoms on a ratio scale. Testing continued until either 20 minutes elapsed, the subject requested testing stop, or severe nausea or vomiting was experienced (i.e., the subject reached a subjective 10 on their scale). Blood pressure, respiratory rate and pulse were measured before and after the chair ride using a Critikon DINAMAP® 1846-SX device.
A standard cognitive assessment battery (Dinges, et al. (1997) Sleep 20(4):267-7; Neri, et al. (1995) Aviat. Space Environ. Med 66(4):313-9; Richardson, et al. (1996) Sleep 19(9):718-26) used in studies of sleep deprivation (Jewett, et al. (1999) Sleep 22(2):171-9) was used which included both objective and subjective measures of performance and wakefulness. The overall battery takes 20 minutes to administer and has been used successfully on the Neurolab space shuttle mission to assess how sleep loss affected crewmembers.
The cognitive tests were performed three times for each chair ride. The first test served as a baseline, the second test was administered at the peak of drug effect and the last test was after the chair ride. In this design, the results of the second test reflect changes due to drug effect, while the results from the third test reflect a combination of drug effect and motion sickness effects.

Mean Reaction Time ([2]; High Dose 12 mg, PostDrug): 281.5 ms
Mean Reaction Time ([2]; High Dose 12 mg, PostRide): 298.4 ms
Mean Reaction Time ([2]; High Dose 12 mg, PreDrug (baseline before drug)): 265.1 ms
Karolinska sleepiness scores ([2]; High dose 12 mg, after chair rides, p<0.0001): higher sleepiness scores
Reaction time (significance) ([2]; High dose 12 mg, after the chair rides, p=0.0002): significantly increased
Mean Reaction Time ([2]; Low Dose 4 mg, PostDrug): 286.1 ms
Mean Reaction Time ([2]; Low Dose 4 mg, PostRide): 295.2 ms
Mean Reaction Time ([2]; Low Dose 4 mg, PreDrug (baseline before drug)): 271.2 ms
SMILES: CN(C)CCC(c1ccc(Cl)cc1)c1ccccn1 (racemic) [chlorpheniramine]
Most commonly reported toxicities ([1]; after chair rides, 18 subjects): drowsiness and dry mouth
Tendency to report a side effect with drug versus placebo ([1]; chi-square analysis): did not reach statistical significance
Mean Time (chair time) (motion sickness; High Dose 12 mg chlorpheniramine capsule): 11.7 min
Mean Motion Sickness Severity Score (motion sickness; High Dose 12 mg): 12.4
Motion sickness severity score at end of chair ride (significance) (motion sickness; High dose 12 mg versus placebo (p=0.0004) and low dose (p=0.01)): significantly less
Increase of mean chair time versus placebo (motion sickness; High dose 12 mg, 7.2 to 11.7 minutes): 63%
Effect on chair time versus placebo (significance) (motion sickness; High dose 12 mg, p=0.001): significantly increased chair time
Mean Time (chair time) (motion sickness; Low Dose 4 mg chlorpheniramine capsule): 10.2 min
Mean Motion Sickness Severity Score (motion sickness; Low Dose 4 mg): 16.4
Subjects who increased chair time to the maximum (20 minutes) (motion sickness; of 18 subjects, rides stopped at 20 minutes): Three
Performance in objective tests of addition, tracking and memory ([2]; 4 mg and 12 mg doses): does not affect performance; also recorded: not significantly affected
Scores on the alert-sleepy mood scale ([2]; High dose 12 mg, p<0.0001): significantly changed toward the sleepy portion of the scale
Scores on the clearheaded-groggy mood scale ([2]; High dose 12 mg, p<0.0001): significantly changed toward the groggy portion of the scale
